In patent publication US20120083522A1, “MODULATION OF INFLAMMATORY RESPONSES BY FACTOR XI” (Isis Pharmaceuitcals, inc., priority 2009, published 2012):

How the values were obtained:
Format in all cases: in vivo
[1] = Tolerability in CD1 mice: liver function (Example 17); set-up: Albumin: unit not given here; conditions: plasma, 50 mg/kg s.c. twice a week
[2] = Tolerability in CD1 mice: kidney function (Example 17); conditions: plasma, 50 mg/kg s.c. twice a week
Description: Results are presented in Tables 62 and 63, expressed in mg/dL.

[3] = Tolerability in CD1 mice: hematology assays (Example 17); conditions: for lymphocyte count / monocyte count / neutrophil count: percent of total blood cell count; for HCT / MCH / MCHC / MCV / WBC count: blood, 50 mg/kg s.c. twice a week
Description: A control group of five mice was injected subcutaneously with PBS for 2 weeks. All experimental groups (i.e. ASO treated mice at 2, 4, 6 weeks) were compared to the control group (i.e. PBS, 2 weeks).
Blood obtained from all mice groups were sent to Antech Diagnostics for hematocrit (HCT), mean corpuscular volume (MCV), mean corpuscular hemoglobin (MCH), and mean corpuscular hemoglobin concentration (MCHC) measurements and analyses, as well as measurements of the various blood cells, such as WBC (neutrophils, lymphocytes, and monocytes), RBC, and platelets, and total hemoglobin content. Percentages given in the tables indicate the percent of total blood cell count.

[4] = Tolerability in Sprague-Dawley rats: liver function (Example 19); conditions: plasma, 50 mg/kg s.c. twice per week for 6 weeks
Description: (§1) Urine samples were taken before the start of treatment.

[5] = Tolerability in Sprague-Dawley rats: kidney function (Example 19); conditions: Sprague-Dawley rats, plasma, 50 mg/kg s.c. twice per week for 6 weeks
Description: as §1

[6] = Tolerability in Sprague-Dawley rats: hematology assays (Example 19); conditions: 50 mg/kg s.c. twice per week for 6 weeks
Description: as §1

[7] = as above; conditions: 50 mg/kg s.c. twice per week for 6 weeks; remark: listed apart in the source

In the case of “ATGCCCTTCATGTCTAGGTC (all C 5-methyl, all phosphorothioate, sugars by position not given here; MOE gapmer) [ISIS 416826, 5-10-5 MOE gapmer]”, the ALT ([1]; 2 weeks) is reported as 182 IU/L, the AST ([1]; 2 weeks) is reported as 274 IU/L and the Albumin ([1]; 2 weeks) is reported as 3.3. For the same sequence, the Bilirubin ([1]; 2 weeks) was 0.39 mg/dL, the ALT ([1]; 4 weeks) was 126 IU/L and the AST ([1]; 4 weeks) was 156 IU/L. For the same sequence, the Albumin ([1]; 4 weeks) was 3.4, the Bilirubin ([1]; 4 weeks) was 0.20 mg/dL and the ALT ([1]; 6 weeks) was 1954 IU/L. It also gave an AST ([1]; 6 weeks) of 1411 IU/L, an Albumin ([1]; 6 weeks) of 3.4 and a Bilirubin ([1]; 6 weeks) of 0.37 mg/dL. The BUN ([2]; 2 weeks) was 24 mg/dL, the creatinine ([2]; 2 weeks) was 0.15 mg/dL and the BUN ([2]; 4 weeks) was 34 mg/dL. It also gave a creatinine ([2]; 4 weeks) of 0.20 mg/dL, a BUN ([2]; 6 weeks) of 27 mg/dL and a creatinine ([2]; 6 weeks) of 0.15 mg/dL. The RBC count ([3]; 2 weeks) was 8 cells/pL, the hemoglobin content ([3]; 2 weeks) was 13.4 g/dL and the platelet count ([3]; 2 weeks) was 1498 cells/nL. The lymphocyte count ([3]; 2 weeks) was 70%, the monocyte count ([3]; 2 weeks) was 3% and the neutrophil count ([3]; 2 weeks) was 26%. The RBC count ([3]; 4 weeks) was 8 cells/pL, the hemoglobin content ([3]; 4 weeks) was 12.8 g/dL and the platelet count ([3]; 4 weeks) was 970 cells/nL. It also gave a lymphocyte count ([3]; 4 weeks) of 61%, a monocyte count ([3]; 4 weeks) of 5% and a neutrophil count ([3]; 4 weeks) of 33%. For the same sequence, the RBC count ([3]; 6 weeks) was 7 cells/pL, the hemoglobin content ([3]; 6 weeks) was 11.0 g/dL and the platelet count ([3]; 6 weeks) was 645 cells/nL. It also gave a lymphocyte count ([3]; 6 weeks) of 67%, a monocyte count ([3]; 6 weeks) of 8% and a neutrophil count ([3]; 6 weeks) of 23%. The HCT ([3]; 2 weeks) was 47%, the MCH ([3]; 2 weeks) was 17 pg and the MCHC ([3]; 2 weeks) was 29%. For the same sequence, the MCV ([3]; 2 weeks) was 56 fL, the WBC count ([3]; 2 weeks) was 5 cells/nL and the HCT ([3]; 4 weeks) was 41%. It also gave an MCH ([3]; 4 weeks) of 16 pg, an MCHC ([3]; 4 weeks) of 31% and an MCV ([3]; 4 weeks) of 52 fL. It also gave a WBC count ([3]; 4 weeks) of 6 cells/nL, an HCT ([3]; 6 weeks) of 37% and an MCH ([3]; 6 weeks) of 16 pg. The MCHC ([3]; 6 weeks) was 30%, the MCV ([3]; 6 weeks) was 53 fL and the WBC count ([3]; 6 weeks) was 8 cells/nL. For the same sequence, the ALT [4] was 611 IU/L, the AST [4] was 104 IU/L and the Albumin [4] was 6 mg/dL. For the same sequence, the Bilirubin [4] was 115 mg/dL, the BUN [5] was 25 mg/dL and the creatinine [5] was 6 mg/dL. The Lymphocytes [6] was 5%, the MCH ([6]; title says % control) was 3 pg and the Monocytes [7] was 7%. For the same sequence, the Neutrophils [7] was 30%, the Platelets [7] was 11 10^3/μL and the RBC [7] was 5 pL⁻¹. The WBC [7] was 7 nL⁻¹, the HCT ([7]; title says % control) was 7% and the Hemoglobin ([7]; title says % control) was 7 g/dL. The MCHC ([7]; title says % control) was 4% and the MCV ([7]; title says % control) was 6 fL.
